Measurements published in patent publication US8845999B2 (The Regents of the University of California, priority 2005, dated 2014).

Assays:
[1] = target: T1, SGLT1 (Homo sapiens, UniProt P13866); assay: Affinity for SGLT1; assay type: biochemical
T1 sequence (P13866 1-664): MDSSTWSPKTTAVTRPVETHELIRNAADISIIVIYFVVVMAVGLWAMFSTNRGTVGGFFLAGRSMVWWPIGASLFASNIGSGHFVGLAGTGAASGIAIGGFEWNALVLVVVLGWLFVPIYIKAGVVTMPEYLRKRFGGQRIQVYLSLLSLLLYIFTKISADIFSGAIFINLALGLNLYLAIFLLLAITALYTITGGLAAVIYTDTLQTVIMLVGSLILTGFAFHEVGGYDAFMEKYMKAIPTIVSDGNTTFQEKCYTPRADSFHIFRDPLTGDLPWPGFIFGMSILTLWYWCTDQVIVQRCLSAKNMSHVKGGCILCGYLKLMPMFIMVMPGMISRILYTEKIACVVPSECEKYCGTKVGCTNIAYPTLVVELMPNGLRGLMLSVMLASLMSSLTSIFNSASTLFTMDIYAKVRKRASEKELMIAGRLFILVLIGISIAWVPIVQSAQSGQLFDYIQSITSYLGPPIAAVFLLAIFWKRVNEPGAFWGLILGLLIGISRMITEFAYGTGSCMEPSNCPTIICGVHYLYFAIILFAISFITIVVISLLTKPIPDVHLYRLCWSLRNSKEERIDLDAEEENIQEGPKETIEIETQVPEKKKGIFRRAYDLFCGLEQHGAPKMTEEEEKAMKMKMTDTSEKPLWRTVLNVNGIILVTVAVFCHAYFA
Description: A [^11C]-methyl-D-glucoside has been synthesized and biologically evaluated as a tracer of sodium dependent glucose transporters. […] A commentary on this paper was published in the same issue of the journal. […] In addition, three ^18F-fluoro-n-alkyl glucosides have been synthesized and evaluated as potential substrates for sodium/glucose cotransporters. […] There are limitations with these probes in that the lifetime of [^11C] is shorter than that of [^18F]
Optionally, additional information can be obtained by also administering one or more pharmacological or other agents to the animal, and monitoring the effect of the agent(s) on tracer uptake and distribution. Nonlimiting examples of suitable agents, include sodium ion, glucose, galactose, and phlorizin. […] Any therapeutic agent can also be used to evaluate its potential role and in vivo activity on SGLTs in various organs, using in vivo competitive kinetics with the radiolabeled tracer.

[2] = system: SGLTs; assay: Whole body PET scan of Vervet monkey; assay type: in vivo; conditions: FIG. 3
Description: Scans can be conducted both with and without administering one or more pharmacological agents, e.g., sodium, phlorizin, glucose, galactose, etc.
FIG. 3 is a nonlimiting example of a methyl 4-[^18F]-FDG whole body PET scan of a Vervet monkey.

[3] = system: SGLTs; assay: MicroPET images of rat's brain after intravenous injection of radiofluorinated glucose derivatives; conditions: same animal, images 50-70 min after intravenous injection, FIG. 7
Experimental: A bolus of a radiolabeled tracer is administered to a non-human primate, rodent, or other non-human mammal, intravenously or orally, and the distribution of tracer transport activity is followed by radiographic means, e.g., PET, microPET and/or SPECT. For PET, an intravenous dose of the tracer contains ˜200 μC/Kg (body weight) methyl 4-[^18F]fluoro-4-deoxy-D-glucopyranoside dissolved in <1 ml saline. […] The identity of each organ and tissue taking up the tracer is confirmed by CT scans.
FIG. 7 presents MicroPET images of a rat's brain after injection of radiofluorinated glucose derivatives. […] These experiments were performed in the same animal at three different occasions. […] The images were acquired using a Concorde 220 microPET camera (Siemens/CTI, Knoxville, Tenn.). The animal was kept under anesthesia with 2% isoflurane in oxygen during all three experiments. Injectable solutions of all radiotracers were prepared in normal saline (0.9% NaCl).

[4] = system: SGLTs; assay: Whole body PET scan of human subjects; assay type: in vivo; conditions: patient with Glucose-Galactose-Malabsorption (missing functional SGLT1), FIG. 6
Experimental: For a 50-70 kg person, 10 mC of methyl 4-deoxy-4-[^18F]fluoro-D-glucopyranoside dissolved in <1 ml saline is injected intravenously, and the distribution of the tracer is followed dynamically in whole body PET scans for up to 2 hours (up to 8 scans at different time intervals). SGLT activity in organs and tissues is determined from the tracer uptake. The anatomical location of tracer uptake in both normal subjects and cancer patients is determined using CT scans.
FIGS. 4 and 5 are nonlimiting examples of 2-[^18F]-FDG and Methyl 4[^18F]-FDG scans, respectively, of the same human subject.
FIG. 6 is a nonlimiting example of a whole body PET scan of a patient with Glucose-Galactose-Malabsorption (missing functional SGLT1 in their body), after being injected with Me-[18F]-4FDG.

[5] = system: sodium-dependent glucose transporters (SGLTs); assay: Micro-PET tests in rodents and PET tests in Vervet monkeys and human volunteers: substrate specificity; assay type: in vivo; conditions: both anomeric forms
Description: A nonlimiting example of a radiolabeled tracer according to the present invention is methyl 4-deoxy-4-[^18F]fluoro-D-glucopyranoside (“Me-4-[^18F]-FDG”), synthesized in either of its two anomeric forms, alpha-methyl 4-[^18F]-FDG and beta-methyl 4-[^18F]-FDG, or as a racemic mixture. […] For example, Me-4-[^18F]-FDG is not a substrate for GLUT1 in the blood brain barrier. It is a novel, high affinity tracer for SGLTs in those cells expressing SGLTs.

Q: With `COC1O[C@H](CO)[C@@H]([18F])[C@H](O)[C@H]1O` (stereo partly drawn) [Me-4-[^18F]-FDG, methyl 4-deoxy-4-[^18F]fluoro-D-glucopyranoside] as the molecule, how does the “affinity for SGLT1” value [1] read?
A: 50 µM

Q: What about the “tracer distribution, whole body PET” value [2] of the same molecule?
A: accumulated in the liver, heart, and kidneys, but not in the brain and little in the urinary bladder

Q: What about the “brain uptake / crossing of the blood-brain barrier, microPET” value [3] of the same molecule?
A: lack of brain uptake

Q: And the “excretion into the urinary bladder, whole body PET” value [4]?
A: excretion of the tracer into the urinary bladder

Q: And the “substrate for SGLTs / GLUTs” value [5]?
A: substrate for sodium-dependent glucose transporters (SGLTs), but not a substrate for GLUTs
